This is an account of results in US12319655B2, “RAF kinase inhibitors and methods of use thereof” (Deciphera Pharmaceuticals, LLC, priority 2021, dated 2025).

The test system of test [1] is WM3629 cells. The test is described as follows: WM3629 Cell Proliferation Assay (2). Format: cell-based. On the procedure: WM3629 Cell Proliferation Assay (2)
WM3629 cells (#WM3629-01-0001) are obtained from Rockland Immunochemicals Inc (Gilbertsville, PA). Briefly, cells were grown in MCDB 153 medium (Sigma, #M7403, St. Louis, MO) supplemented with 20% Leibovitz's L-15 (ThermoFisher #11415-064, Waltham, MA), 2% heat inactivated fetal bovine serum (ThermoFisher, #A3840001, Waltham, MA), 5 μg/mL Insulin (Bovine Pancreas) (Sigma, #I0516, St. Louis, MO), 1.68 mM Calcium Chloride (Sigma, #C-34006, St. Louis, MO) and 1% Penicillin/Streptomycin/L-Glutamine (ThermoFisher #10378016, Waltham, MA) at 37° C., 5% CO2, and 95% humidity. Cells are expanded until reaching 70-95% confluency at which point they are sub-cultured or harvested for assay use. Using the Beckman Coulter Echo 650, a serial dilution of test compound is dispensed into a 384-well black clear bottom plate in triplicate. One thousand one hundred twenty-five cells are added per well in 50 μL complete growth medium in the 384-well plate. Plates are incubated for 67-72 hours at 37° C., 5% CO2, and 95% humidity. At the end of the incubation, 10 μL of a 440 μM solution of resazurin (Sigma, #199303, St. Louis, MO) in PBS is added to each well of the plate and plates are incubated for an additional 3-6 hours at 37° C., 5% CO2, and 95% humidity. Plates are read on a Synergy2 or equivalent reader (Biotek, Winooski VT) using an excitation of 540 nm and an emission of 600 nm. Data is analyzed using Prism software (GraphPad, San Diego, CA) to calculate IC50 values.

The test system of test [2] is Miapaca-2 cells. The experiment in a line: MiaPaca-2 Cell Proliferation Assay (2). Format: cell-based. Particulars: Homo sapiens, MIA PaCa-2, single agent. On the procedure:
MiaPaca-2 Cell Proliferation Assay (2)
Miapaca-2 cells (catalog #CRL-1420) are obtained from the American Type Culture Collect (ATTC, Manassas, VA). Briefly, cells were grown in DMEM supplemented with 10% characterized fetal bovine serum (Invitrogen, Carlsbad, CA), 2.5% New Zealand sourced horse serum and 1% Penicillin/Streptomycin/L-Glutamine at 37° C., 5% CO2, and 95% humidity. Cells are expanded until reaching 70-95% confluency at which point they are sub-cultured or harvested for assay use. A serial dilution of test compound is dispensed into a 384-well black clear bottom plate in triplicate. Seven hundred fifty cells are added per well in 50 μL complete growth medium in the 384-well plate. Plates are incubated for 67-72 h at 37° C., 5% CO2, and 95% humidity. At the end of the incubation, 10 μL of a 440 μM solution of resazurin (Sigma, St. Louis, MO) in PBS is added to each well of the plate and plates are incubated for an additional 5-6 h at 37° C., 5% CO2, and 95% humidity. Plates are read on a Synergy2 or equivalent reader (Biotek, Winooski VT) using an excitation of 540 nm and an emission of 600 nm. Data is analyzed using Prism software (GraphPad, San Diego, CA) to calculate IC50 values.

Take `CNC(=O)c1cc(-c2cc(-c3cc(NC(=O)c4ccnc(C(C)(C)F)c4)ccc3C)c(F)cn2)ccn1` [Example 469]: the results for the IC50 in test [1] and in test [2] were at most 100 nM and 1000 to 10000 nM, respectively. On the same counts, the results for `CNC(=O)c1cc(-c2cc(-c3cc(NC(=O)c4ccnc(C(C)(C)F)c4)ccc3C)cc(C)n2)ccn1` [Example 470] are at most 100 nM and 1000 to 10000 nM. On to `Cc1ccc(NC(=O)c2ccnc(C(C)(C)F)c2)cc1-c1ccnc(-c2ccnc(C(N)=O)c2)c1` [Example 476], for which the IC50 in test [1] was at most 100 nM; in test [2], 1000 to 10000 nM. As to `Cc1ccc(NC(=O)c2ccnc(C(C)C)c2)cc1-c1ccnc(-c2ccnc(NC(=O)C3CC3)c2)c1` [Example 467], the IC50 in test [2] lay in the range of 500 to 1000 nM. Regarding `CNC(=O)c1cc(-c2cncc(-c3cc(NC(=O)c4ccnc(C(C)(F)F)c4)ccc3C)c2)ccn1` [Example 440], in test [2], the IC50 lay in the range of 1000 to 10000 nM. For the compound `Cc1cc(-c2cc(NC(=O)c3ccnc(C(C)(C)F)c3)ccc2C)cc(-c2ccnc(C(N)=O)c2)n1` [Example 484], the IC50 in test [1] was at most 100 nM; in test [2], 1000 to 10000 nM. For the compound `CNC(=O)c1cc(-c2cncc(-c3cc(NC(=O)c4ccnc(C(C)(F)F)c4)ccc3C)c2)ncn1` [Example 439], the IC50 in test [2] is 1000 to 10000 nM. Turning to `CNC(=O)c1cc(-c2cc(-c3cc(NC(=O)c4ccnc(C(C)C)c4)ccc3C)ccn2)ccn1` [Example 443], the IC50 is at most 100 nM in test [1] and 500 to 1000 nM in test [2]. For `CNC(=O)c1cc(-c2cc(-c3cc(NC(=O)c4ccnc(C(C)(C)F)c4)c(F)cc3F)ccn2)ccn1` [Example 482], the IC50 in test [1] is at most 100 nM; in test [2] it was 1000 to 10000 nM. On to `CNC(=O)c1cc(-c2cc(-c3cc(NC(=O)c4ccnc(C(C)(C)F)c4)cc(F)c3C)ccn2)ccn1` [Example 480], for which the IC50 in test [1] is at most 100 nM; in test [2], 1000 to 10000 nM. Take `CNC(=O)c1cc(-c2cncc(-c3cc(NC(=O)c4ccnc(C(C)C)c4)ccc3C)c2)ncn1` [Example 446]: the values for the IC50 in test [1] and in test [2] were at most 100 nM and 1000 to 10000 nM, respectively. Turning to `CNC(=O)c1cc(-c2cncc(-c3cc(NC(=O)c4ccnc(C(C)(C)C#N)c4)ccc3C)c2)ccn1` [Example 442], the IC50 in test [2] lay within 500 to 1000 nM. On to `CNC(=O)c1cc(-c2cncc(-c3cc(NC(=O)c4ccnc(C(C)C)c4)ccc3C)c2)ccn1` [Example 445], for which the IC50 is at most 100 nM in test [1] and 1000 to 10000 nM in test [2]. With `CNC(=O)c1cc(-c2cc(-c3cc(NC(=O)c4ccnc(C(C)(C)F)c4)ccc3F)ccn2)ccn1` [Example 479], the IC50 in test [1] is at most 100 nM; in test [2], 1000 to 10000 nM.

In the case of `CNC(=O)c1cc(-c2cc(-c3cc(NC(=O)c4ccnc(C(C)(F)F)c4)ccc3C)ccn2)ccn1` [Example 441], in test [2], the IC50 fell in the range of 1000 to 10000 nM.
